One may read the IC50 as the midpoint of a concentration-inhibition curve.

For eight compounds, Activity and IC50 results are on record in ChEMBL document CHEMBL1149045, “Further butenolides from the Caribbean octocoral Pterogorgia citrina” (J Nat Prod, 1994).

SMILES strings stand for the structures. Calls of active or inactive are those of the source. The rule behind the calls is not given here.

The subject of test [1] is Staphylococcus aureus. The test can be described thus: Antimicrobial activity against Staphylococcus aureus at 1 ug/disk. The class given is functional, organism-based.
Test [2] relates to Escherichia coli. The test can be described thus: Antimicrobial activity against Escherichia coli at 1 ug/disk. It counts as functional, organism-based.
Test [3] deals with Escherichia coli. The test is described as follows: Antimicrobial activity against Escherichia coli at 10 ug/disk. The class given is functional, organism-based.
Test [4] relates to Staphylococcus aureus. The test can be described thus: Antimicrobial activity against Staphylococcus aureus at 5 ug/disk. The class given is functional, organism-based.
The subject of test [5] is Escherichia coli. The test is described as follows: Antimicrobial activity against Escherichia coli at 5 ug/disk. The class given is functional, organism-based.
The test system of test [6] is Staphylococcus aureus. The test is described as follows: Antimicrobial activity against Staphylococcus aureus at 10 ug/disk. The class given is functional, organism-based.
For test [7], the system named is HCT-116. The test is described as follows: Cytotoxicity against human HCT116 cells. The class given is functional, cell-based.

`CC(=O)O[C@@H]1[C@H](C)OC(=O)[C@@H]1CCCCCCCCCCCCC1=C[C@H](C)OC1=O` [ANCEPSENOLIDE ACETATE]: the outcome in test [1], in test [2], in test [3], in test [4], in test [5] and in test [6] was inactive. In test [7], the IC50 is above 50 mg/L.

For the compound `C[C@@H]1OC(=O)[C@@H](CCCCCCCCCCCCC2=C[C@H](C)OC2=O)[C@H]1O`, the outcome in test [1], in test [2], in test [3], in test [4], in test [5] and in test [6] was inactive.

On to `C[C@H]1C=C(CCCCCCCCCCCCCCC2=C[C@H](C)OC2=O)C(=O)O1` [HOMOANCEPSENOLIDE], for which the result in test [1], in test [2], in test [3], in test [4], in test [5] and in test [6] was inactive. This compound displayed a half-maximal inhibitory concentration (IC50) in test [7] above 50 mg/L.

Take `CC(=O)O[C@H]1[C@H](C)OC(=O)[C@H]1CCCCCCCCCCCCC1=C[C@H](C)OC1=O`: the result in test [1], in test [2], in test [3], in test [4], in test [5] and in test [6] was inactive.

For `CC(=O)O[C@H]1[C@H](C)OC(=O)[C@H]1CCCCCCCCCCCCCCC1=C[C@H](C)OC1=O`, the result in test [1], in test [2], in test [3], in test [4], in test [5] and in test [6] was inactive.

With `C[C@H]1C=C(CCCCCC/C=C\CCCCCCC2=C[C@H](C)OC2=O)C(=O)O1`, the outcome in test [1], in test [2], in test [3], in test [4], in test [5] and in test [6] was inactive. In test [7], this compound gave an IC50 above 50 mg/L.

For `CC(=O)O[C@@H]1[C@H](C)OC(=O)[C@@H]1CCCCCCCCCCCCCCC1=C[C@H](C)OC1=O`, the outcome in test [1], in test [2], in test [3], in test [4], in test [5] and in test [6] was inactive.

For the compound `CC(=O)O[C@@H]1[C@H](C)OC(=O)[C@@H]1CCCCCC/C=C\CCCCCCC1=C[C@H](C)OC1=O`, the outcome in test [1], in test [2], in test [3], in test [4], in test [5] and in test [6] was inactive.
